Assay results as given in US6444467B1, “Process for production and subsequent ex vitro sowing and propagation of pre-germinated plant somatic embryos” (Cellfor Inc., priority 1998, dated 2002).

System: spruce somatic embryos
Assay: ex vitro re-germination of desiccated, pre-germinated spruce somatic embryos after ABA treatment
Type: in vivo
Conditions: 90 min in darkness
Source text: Somatic embryos of interior spruce (Picea glauca (Moench) Voss x P. engelmannii Parry ex Engelm.) lines I-1026, and 10-1418 were produced and dried with a high-relative-humidity treatment (HRHT) according to the methods of Roberts et al. (1990a; 1990b) and Webster et al. (1990).
Two groups of dried embryos for each of the two genotypes, were germinated on Whatman #1 filter paper on a thin layer of cotton in polycarbonate boxes. The liquid germination medium was modified GMD medium (NH4^+—N/NO3^−—N ratio was 1.4; phosphate concentration was 6 mM; 3% sucrose). After the embryos were sown onto the filter paper, the liquid level in the germination boxes was adjusted to provide a liquid film surrounding the surface of embryos situated at the interface with the solid support. The boxes were sealed with Parafilm and placed in a controlled environment room with the temperature maintained at a constant 23° C.
The first group of somatic embryos was germinated for 7 days after which, the polycarbonate boxes containing the germinants were transferred into refrigerated storage (i.e., temperatures were within a range of 8-12° C.) for 72 hours. The germinants were then removed from the cold treatment and subsequently received the various ABA treatments described below. The germinants which received the cold treatment are hereafter referred to as “stored germinants” .
This group of germinants is referred to hereafter as “fresh germinants”.
The stored and fresh germinants of each genotype were carefully paired into four groups, on wetted paper towel disks in separate 10 cm Petri dishes and received four ABA treatments, said ABA treatments being concentrations of 0, 5, 10, 20 μM, respectively. The ABA treatments were applied in darkness for 90 min.
After the completion of the ABA treatments, the somatic germinants were blot-dried on paper towels. The germinants were then transferred to fresh 5 cm Petri dish. The dishes, two per drying chamber, were placed in drying chambers containing a saturated KCl solution, which provided an atmospheric humidity of 85% RH over the liquid surface in a sealed chamber at 20° C. The somatic germinants were dried for 24 hr in a refrigerated room maintained between 5-8° C. after which, the drying chambers were transferred into a controlled environment room maintained at 20° C. for another 15 h.
The dried germinants were sown into 288-cavity miniplug trays (TLC Polyform Inc,. Plymouth Minn., USA, 55441) filled with a peat-based soilless mix comprised of 60% peat and 40% coarse horticultural vermiculite. Each germinant type of each genotype in each ABA treatment was randomly sown into 5 minitrays in blocks of 20 germinants. After sowing, the germinants were covered with a thin layer of coir (1993 Crystal Co., St. Louis, Mo., USA). The trays were wrapped in black plastic bags for 18 hrs to allow slow rehydration of germinants. Then, the trays were misted with a modified GMD nutrient solution (Webster et al., 1990) containing 3% sucrose until the soilless mix and coir became well wetted. The trays were placed in two misting chambers in a controlled environment germination room under light reduced by a 50% shade cloth for the first week. The shade cloth was removed at the end of the first week and the germinants were exposed to a light intensity of 180 μmol m^−2s^−1 photosynthetic photon flux. The chambers were frequently misted to keep the soilless mix moistened. Modified GMD solution with 3% sucrose was sprayed onto the germinants daily. After 7 days, germinants were fertilized weekly with 20-20-20 fertilizer (Plant Products Ltd., Brampton, ON, Canada) to deliver the equivalent of 100 ppm N.

CC1=CC(=O)CC(C)(C)[C@@]1(O)/C=C/C(C)=C\C(=O)O [ABA, abscisic acid]
Re-germination success (%) (genotype 10-1418, "fresh" germinants, ABA 5 μM): 53.8% | Re-germination success (%) (genotype 10-1418, "fresh" germinants, ABA 10 μM): 16.6% | Re-germination success (%) (genotype 10-1418, "fresh" germinants, ABA 20 μM): 29.8% | Re-germination success (%) (genotype 10-1418, "stored" germinants, ABA 5 μM): 59.8% | Re-germination success (%) (genotype 10-1418, "stored" germinants, ABA 10 μM): 57.5% | Re-germination success (%) (genotype 10-1418, "stored" germinants, ABA 20 μM): 60.0% | Re-germination success (%) (genotype I-1026, "fresh" germinants, ABA 5 μM): 35.0% | Re-germination success (%) (genotype I-1026, "fresh" germinants, ABA 10 μM): 53.3% | Re-germination success (%) (genotype I-1026, "fresh" germinants, ABA 20 μM): 48.2% | Re-germination success (%) (genotype I-1026, "stored" germinants, ABA 5 μM): 71.8% | Re-germination success (%) (genotype I-1026, "stored" germinants, ABA 10 μM): 74.3% | Re-germination success (%) (genotype I-1026, "stored" germinants, ABA 20 μM): 73.5%
